# From patent publication US11655232B2 (Celgene Corporation, priority 2003, dated 2023)
# Read-outs that look alike come from different tables or passages of the source.
# Assays:
# [1] = Temperature/relative humidity stress storage; type: physicochemical
# [2] = Moisture sorption/desorption; type: physicochemical
# Description: Moisture sorption/desorption data were collected on a VTI SGA-100 moisture balance system. For sorption isotherms, a sorption range of 5 to 95% relative humidity (RH) and a desorption range of 95 to 5% RH in 10% RH increments was used for analysis. The sample was not dried prior to analysis. Equilibrium criteria used for analysis were less than 0.0100 weight percent change in 5 minutes with a maximum equilibration time of 3 hours if the weight criterion was not met. Data were not corrected for the initial moisture content of the samples.
# Desolvation by heating = type: physicochemical; details: about 125° C. for about five minutes
# [3] = Intrinsic dissolution (Woods apparatus); type: physicochemical
# Description: Dissolution experiments were carried out in a VanKel VK6010-8 dissolution apparatus equipped with a VK650A heater/circulator. An intrinsic dissolution apparatus (Woods apparatus) was used. Samples were compressed at 1.5 metric tons (1000 psi) for 1 min using the Woods apparatus in a hydraulic press, giving a sample surface of 0.50 cm^2. […] The medium was degassed by vacuum filtration through a 0.22-μm nylon filter disk and maintained at 37° C. The apparatus was rotated at 50 rpm for each experiment. Aliquots were filtered immediately using 0.2-μm nylon syringe filters. In some cases, the undissolved solids were recovered and analyzed by X-ray powder diffraction (XRPD).
# Diffracted radiation was detected by a NaI scintillation detector.
# physchem = details: 25 °C, pH 1.8, aqueous with cosolvent or surfactant or cyclodextrin, thermodynamic from solid
# Description: (§1) A solid sample of 400-450 mg was stirred in 50 mL of dissolution medium (HCl buffer, pH 1.8, with 1% sodium lauryl sulfate) using a mechanical stir rod. Aliquots were filtered using 0.2-μm nylon syringe filters and immediately diluted 1 mL→50 mL, then 5 mL→25 mL with dissolution medium in Class A glassware, a final dilution factor of 250.
# (§2) Dissolution and solubility samples solutions were analyzed by a Beckman DU 640 single-beam spectrophotometer. A 1.000-cm quartz cuvette and an analysis wavelength of 228.40 nm were utilized. The detector was zeroed with a cuvette filled with dissolution medium.
# (§3) XRPD analyses were carried out on a Shimadzu XRD-6000 X-ray powder diffractometer using Cu Kα radiation. The instrument is equipped with a fine focus X-ray tube. The tube power and amperage were set at 40 kV and 40 mA, respectively. The divergence and scattering slits were set at 1° and the receiving slit was set at 0.15 mm. Diffracted radiation was detected by a NaI scintillation detector. A theta-two theta continuous scan at 3°/min (0.4 sec/0.02° step) from 2.5 to 40°2θ was used. A silicon standard was analyzed each day to check the instrument alignment. Samples were packed in an aluminum holder with silicon insert.
# [4] = pH 1.8
# Description: as §1, §2, §3
smiles,measurement,setting,value
"Nc1cccc2c1CN(C1CCC(=O)NC1=O)C2=O (stereo not shown) [Form E, 3-(4-amino-1-oxo-1,3 dihydro-isoindol-2-yl)-piperidine-2,6-dione]",form after stress storage,"[1]; about 85 days, room temperature/0% RH and 40° C./93% RH",typically does not convert to a different form
same,form after stress storage,[1]; seven days at room temperature/0% RH,"can convert to a new form, Form H"
same,weight lost from start to finish,[2]; at 5% relative humidity after drying from 95% back down to 5%,about 0.0528 % by weight
same,weight gain on moisture sorption,[2]; from 5 to 95% relative humidity,does not exhibit a significant weight change
same,form after heating (desolvation),Desolvation by heating,can convert to Form B
same,Cumulative Amount Dissolved per Unit Area,"[3]; Experiment #1, 5 min",2.70 mg/cm2
same,Cumulative Amount Dissolved per Unit Area,"[3]; Experiment #1, 10 min",4.13 mg/cm2
same,Cumulative Amount Dissolved per Unit Area,"[3]; Experiment #1, 20 min",6.96 mg/cm2
same,Cumulative Amount Dissolved per Unit Area,"[3]; Experiment #1, 30 min",9.60 mg/cm2
same,Cumulative Amount Dissolved per Unit Area,"[3]; Experiment #1, 45 min",12.57 mg/cm2
same,Cumulative Amount Dissolved per Unit Area,"[3]; Experiment #1, 60 min",15.16 mg/cm2
same,Cumulative Amount Dissolved per Unit Area,"[3]; Experiment #1, 90 min",20.82 mg/cm2
same,Cumulative Amount Dissolved per Unit Area,"[3]; Experiment #2, 5 min",3.06 mg/cm2
same,Cumulative Amount Dissolved per Unit Area,"[3]; Experiment #2, 10 min",4.31 mg/cm2
same,Cumulative Amount Dissolved per Unit Area,"[3]; Experiment #2, 20 min",11.40 mg/cm2
same,Cumulative Amount Dissolved per Unit Area,"[3]; Experiment #2, 30 min",11.93 mg/cm2
same,Cumulative Amount Dissolved per Unit Area,"[3]; Experiment #2, 45 min",14.72 mg/cm2
same,Cumulative Amount Dissolved per Unit Area,"[3]; Experiment #2, 60 min",18.52 mg/cm2
same,Cumulative Amount Dissolved per Unit Area,"[3]; Experiment #2, 90 min",26.24 mg/cm2
same,Cumulative Amount Dissolved per Unit Area,"[3]; Experiment #2, 120 min",33.56 mg/cm2
same,Cumulative Amount Dissolved per Unit Area,"[3]; Experiment #2, 150 min",40.82 mg/cm2
same,dissolution rates (estimated),"[3]; HCl buffer pH 1.8, 1% sodium lauryl sulfate",0.23 mg/cm²/min
same,Final Form of undissolved solids after intrinsic dissolution (XRPD),"[3]; HCl buffer pH 1.8, 1% sodium lauryl sulfate, 37° C.",did not change
same,Average Intrinsic Dissolution Rate,[3]; average of experiments #1 and #2,0.23 mg per cm^2 per minute
same,Intrinsic Dissolution #1 (rate),"[3]; experiment #1, 900 mL HCl buffer pH 1.8, 1% sodium lauryl sulfate, 37° C., 50 rpm",0.21 mg per cm^2 per minute
same,Intrinsic Dissolution #2 (rate),"[3]; experiment #2, HCl buffer pH 1.8, 1% sodium lauryl sulfate, 37° C., 50 rpm",0.25 mg per cm^2 per minute
same,Solubility,physchem,4700 µg/mL
same,Solubility,[4],4700 µg/mL
